Laboratory results reported in patent US8084456B2, “Pyrazine-based tubulin inhibitors” (YM Biosciences Australia Pty Ltd, priority 2002, dated 2011).

Assays:
[1] = tested on: PC3 (Prostate Cancer) cells; assay: Cellular growth assay (MTT), PC3; format: cell-based; conditions: Homo sapiens, PC-3, 40 hr incubation, read-out: PC3 (inhibition of 50% of cellular growth)
Protocol: (§1) K562 (Chronic Myeloid Leukemia), PC3 (Prostate Cancer), and DU145 (Prostate Cancer) were obtained from the American Type Culture Collection (ATCC). K562 was grown in RPMI, with 10% FBS with Glutamx added. DU145 cells were cultured in DMED, with 10% FBS and Glutamx and MEM non-essential amino acids added. PC3 cells were grown in F12K medium, with 10% FBS and Glutamx and MEM non-essential amino acids added. All cells were grown at 37° C. in 5% CO2.

TelJak3 = TelJak3 (Homo sapiens, UniProt P52333); assay: Cellular growth assay (MTT), BaF3 TEL/JAK3 cells; format: cell-based; conditions: 40 hr incubation, read-out: TelJak3 (inhibition of 50% of cellular growth)
TelJak3, sequence (P52333 with tags, fused parts or gaps): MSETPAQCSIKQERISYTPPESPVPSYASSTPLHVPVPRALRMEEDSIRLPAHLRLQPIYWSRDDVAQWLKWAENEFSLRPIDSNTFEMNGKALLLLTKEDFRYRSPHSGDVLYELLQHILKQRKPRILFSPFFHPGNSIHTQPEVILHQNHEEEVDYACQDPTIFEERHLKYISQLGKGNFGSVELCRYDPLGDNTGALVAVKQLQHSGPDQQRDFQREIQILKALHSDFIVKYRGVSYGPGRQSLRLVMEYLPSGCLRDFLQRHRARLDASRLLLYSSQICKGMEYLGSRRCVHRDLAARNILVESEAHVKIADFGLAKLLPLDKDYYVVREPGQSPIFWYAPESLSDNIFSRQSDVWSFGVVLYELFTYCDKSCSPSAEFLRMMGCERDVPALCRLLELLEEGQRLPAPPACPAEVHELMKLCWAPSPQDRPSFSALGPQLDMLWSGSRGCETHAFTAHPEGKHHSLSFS

Tubulin = Tubulin assay (turbidometric microtubule assembly); format: biochemical; conditions: at 50 μM, absorbance at 340 nm, 37° C.
Protocol: Turbidometric assays of microtubule assembly were performed by incubating microtubule protein in cuvettes at 37° C. in a thermostatically controlled spectrophotometer measuring the change in absorbance at 340 nm over time. The microtubule protein was incubated with the each test compound at 0° C. and polymerisation was initiated by addition of 1 mM GTP, prior to heating to 37° C.

TelJak2 = TelJak2 (Homo sapiens, UniProt O60674); assay: Cellular growth assay (MTT), BaF3 TEL/JAK2 cells; format: cell-based; conditions: 40 hr incubation, read-out: TelJak2 (inhibition of 50% of cellular growth)
TelJak2, sequence (O60674 with tags, fused parts or gaps): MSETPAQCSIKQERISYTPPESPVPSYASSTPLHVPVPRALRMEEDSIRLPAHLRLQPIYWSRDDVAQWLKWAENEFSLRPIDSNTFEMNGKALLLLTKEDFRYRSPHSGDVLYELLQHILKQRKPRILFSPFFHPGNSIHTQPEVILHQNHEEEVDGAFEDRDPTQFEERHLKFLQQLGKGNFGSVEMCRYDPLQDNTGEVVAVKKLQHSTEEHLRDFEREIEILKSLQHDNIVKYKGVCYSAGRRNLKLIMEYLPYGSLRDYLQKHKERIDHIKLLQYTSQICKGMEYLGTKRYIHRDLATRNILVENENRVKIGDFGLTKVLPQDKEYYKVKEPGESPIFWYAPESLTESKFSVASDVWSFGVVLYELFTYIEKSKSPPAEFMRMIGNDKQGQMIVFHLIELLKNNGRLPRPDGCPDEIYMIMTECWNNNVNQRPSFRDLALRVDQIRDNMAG

[2] = tested on: DU145 (Prostate Cancer) cells; assay: Cellular growth assay (MTT), DU145; format: cell-based; conditions: Homo sapiens, DU-145, 40 hr incubation, read-out: DU145 (inhibition of 50% of cellular growth)
Protocol: as §1

[3] = tested on: K562 (Chronic Myeloid Leukemia) cells; assay: Cellular growth assay (MTT), K562; format: cell-based; conditions: Homo sapiens, 40 hr incubation, read-out: K562 (inhibition of 50% of cellular growth)
Protocol: as §1

SMILES	IC50 [1]	IC50 (TelJak3)	Tubulin (inhibition of tubulin polymerisation) (Tubulin)	IC50 (TelJak2)	IC50 [2]	IC50 [3]
CCCC(Nc1cncc(-c2ccc(O)c(OC)c2)n1)c1cccc(C(=O)OC)c1 (stereo not drawn)	≤ 20 µM	≤ 20 µM	+ (inhibited tubulin polymerisation by greater than 50% at 50 μM)	≤ 20 µM	≤ 20 µM	≤ 20 µM
CCCC(Nc1cncc(-c2ccc(O)c(OC)c2)n1)c1cccc(O)c1 (stereo not drawn)	> 20 µM	≤ 20 µM	+ (inhibited tubulin polymerisation by greater than 50% at 50 μM)	≤ 20 µM	> 20 µM	≤ 20 µM
CCCC(Nc1cncc(-c2cc(C)c(OCCN(CC)CC)c(C)c2)n1)c1ccc(F)cc1 (stereo not drawn)	≤ 20 µM	≤ 20 µM	+ (inhibited tubulin polymerisation by greater than 50% at 50 μM)	≤ 20 µM	≤ 20 µM	≤ 20 µM
CCCC(Nc1cncc(-c2ccc(O)c(OC)c2)n1)c1cccc(Cl)c1 (stereo not drawn)	≤ 20 µM	≤ 20 µM	+ (inhibited tubulin polymerisation by greater than 50% at 50 μM)	≤ 20 µM	≤ 20 µM	≤ 20 µM
CCCC(Nc1cncc(-c2ccc(O)c(OC)c2)n1)c1ccc(C)cc1 (stereo not drawn)	≤ 20 µM	≤ 20 µM	+ (inhibited tubulin polymerisation by greater than 50% at 50 μM)	≤ 20 µM	≤ 20 µM	≤ 20 µM
COCCC(Nc1cncc(-c2ccc(O)c(OC)c2)n1)c1ccccc1 (stereo not drawn)	≤ 20 µM	≤ 20 µM	+ (inhibited tubulin polymerisation by greater than 50% at 50 μM)	≤ 20 µM	≤ 20 µM	≤ 20 µM
CCCC(Nc1cncc(-c2ccc(O)c(OC)c2)n1)c1ccc(OC)nc1 (stereo not drawn)	> 20 µM	≤ 20 µM	+ (inhibited tubulin polymerisation by greater than 50% at 50 μM)	≤ 20 µM	≤ 20 µM	≤ 20 µM
CCCC(Nc1cncc(-c2ccc(O)c(OC)c2)n1)c1cc(OC)cc(OC)c1 (stereo not drawn)	≤ 20 µM	≤ 20 µM	+ (inhibited tubulin polymerisation by greater than 50% at 50 μM)	≤ 20 µM	≤ 20 µM	≤ 20 µM
CCCC(Nc1nc(-c2ccc(N)c(OC)c2)cnc1C)c1ccccc1 (stereo not drawn)	≤ 20 µM	≤ 20 µM	+ (inhibited tubulin polymerisation by greater than 50% at 50 μM)	≤ 20 µM	≤ 20 µM	≤ 20 µM
CCCC(Nc1cncc(-c2ccc3c(c2)OCO3)n1)c1ccccc1 (stereo not drawn)	≤ 20 µM	≤ 20 µM	+ (inhibited tubulin polymerisation by greater than 50% at 50 μM)	≤ 20 µM	≤ 20 µM	≤ 20 µM
CCC[C@H](Nc1cncc(-c2ccc(O)c(OC)c2)n1)c1cccc(F)c1	≤ 20 µM	≤ 20 µM	+ (inhibited tubulin polymerisation by greater than 50% at 50 μM)	≤ 20 µM	≤ 20 µM	≤ 20 µM
CCCC(Nc1cncc(-c2ccc(NC(C)=O)c(OC)c2)n1)c1ccc(F)cc1 (stereo not drawn)	≤ 20 µM	≤ 20 µM	+ (inhibited tubulin polymerisation by greater than 50% at 50 μM)	≤ 20 µM	≤ 20 µM	≤ 20 µM
CCCC(Nc1cncc(-c2ccc(O)c(OC)c2)n1)c1cc(C)ccc1C (stereo not drawn)	≤ 20 µM	≤ 20 µM	+ (inhibited tubulin polymerisation by greater than 50% at 50 μM)	≤ 20 µM	≤ 20 µM	≤ 20 µM
CCC[C@H](Nc1cncc(-c2ccc(N)c(OC)c2)n1)c1ccccc1	≤ 20 µM	≤ 20 µM	+ (inhibited tubulin polymerisation by greater than 50% at 50 μM)	≤ 20 µM	≤ 20 µM	≤ 20 µM
CCCC(Nc1cncc(-c2ccc(N)c(OC)c2)n1)c1cccnc1 (stereo not drawn)	≤ 20 µM	≤ 20 µM	+ (inhibited tubulin polymerisation by greater than 50% at 50 μM)	≤ 20 µM	≤ 20 µM	≤ 20 µM
CCCC(Nc1cncc(-c2ccc(O)c(OC)c2)n1)c1cccc(OC)c1 (stereo not drawn)	≤ 20 µM	≤ 20 µM	+ (inhibited tubulin polymerisation by greater than 50% at 50 μM)	≤ 20 µM	≤ 20 µM	≤ 20 µM

SMILES	IC50 [1]	IC50 (TelJak3)	Tubulin (inhibition of tubulin polymerisation) (Tubulin)	IC50 (TelJak2)	IC50 [2]	IC50 [3]
CCCC(Nc1cncc(-c2ccc(O)c(OC)c2)n1)c1cccc(F)c1 (stereo not drawn)	≤ 20 µM	≤ 20 µM	+ (inhibited tubulin polymerisation by greater than 50% at 50 μM)	≤ 20 µM	≤ 20 µM	≤ 20 µM
CCCC(Nc1cncc(-c2ccc(O)c(OC)c2)n1)c1cccc(NC(=O)c2cccnc2)c1 (stereo not drawn)	≤ 20 µM	≤ 20 µM	+ (inhibited tubulin polymerisation by greater than 50% at 50 μM)	≤ 20 µM	≤ 20 µM	≤ 20 µM
CCCC(Nc1cncc(-c2ccc(O)c(OC)c2)n1)c1cccnc1 (stereo not drawn)	≤ 20 µM	≤ 20 µM	+ (inhibited tubulin polymerisation by greater than 50% at 50 μM)	≤ 20 µM	≤ 20 µM	≤ 20 µM
CCCC(Nc1cncc(-c2ccc(O)c(OC)c2)n1)c1cncc(C)c1 (stereo not drawn)	≤ 20 µM	≤ 20 µM	+ (inhibited tubulin polymerisation by greater than 50% at 50 μM)	≤ 20 µM	> 20 µM	≤ 20 µM
CCCC(Nc1cncc(-c2ccc(O)c(OC)c2)n1)c1cccc(N)c1 (stereo not drawn)	≤ 20 µM	≤ 20 µM	+ (inhibited tubulin polymerisation by greater than 50% at 50 μM)	≤ 20 µM	> 20 µM	≤ 20 µM
CCCC(Nc1cncc(-c2ccc(O)c(OC)c2)n1)c1ccc(OC)cc1 (stereo not drawn)	≤ 20 µM	≤ 20 µM	+ (inhibited tubulin polymerisation by greater than 50% at 50 μM)	≤ 20 µM	≤ 20 µM	≤ 20 µM
CCCC(Nc1cnc(C)c(-c2ccc(N)c(OC)c2)n1)c1ccccc1 (stereo not drawn)	≤ 20 µM	≤ 20 µM	+ (inhibited tubulin polymerisation by greater than 50% at 50 μM)	≤ 20 µM	≤ 20 µM	≤ 20 µM
CCCC(Nc1cncc(-c2ccc(O)c(OC)c2)n1)c1ccc(C(F)(F)F)cc1 (stereo not drawn)	> 20 µM	> 20 µM	− (did not inhibit tubulin polymerisation by 50% at 50 μM)	> 20 µM	> 20 µM	> 20 µM
CCCC(Nc1cncc(-c2ccc(O)c(OC)c2)n1)c1ccc(Cl)cc1 (stereo not drawn)	≤ 20 µM	≤ 20 µM	+ (inhibited tubulin polymerisation by greater than 50% at 50 μM)	≤ 20 µM	≤ 20 µM	≤ 20 µM
CCCC(Nc1cncc(-c2ccc(O)c(OC)c2)n1)c1cc(F)cc(F)c1 (stereo not drawn)	> 20 µM	≤ 20 µM	+ (inhibited tubulin polymerisation by greater than 50% at 50 μM)	≤ 20 µM	> 20 µM	≤ 20 µM
CCCC(Nc1cncc(-c2ccc(N)c(OC)c2)n1)c1ccc(F)cc1 (stereo not drawn)	≤ 20 µM	≤ 20 µM	+ (inhibited tubulin polymerisation by greater than 50% at 50 μM)	≤ 20 µM	≤ 20 µM	≤ 20 µM
CCCC(Nc1cncc(-c2ccc(OC)c(OC)c2)n1)c1ccccc1 (stereo not drawn)	≤ 20 µM	≤ 20 µM	+ (inhibited tubulin polymerisation by greater than 50% at 50 μM)	≤ 20 µM	≤ 20 µM	≤ 20 µM
CCCC(Nc1cncc(-c2ccc(O)c(OC)c2)n1)c1c(F)cccc1Cl (stereo not drawn)	≤ 20 µM	≤ 20 µM	+ (inhibited tubulin polymerisation by greater than 50% at 50 μM)	≤ 20 µM	≤ 20 µM	≤ 20 µM
CCCC(Nc1nc(-c2ccc(O)c(OC)c2)cnc1C)c1ccccc1 (stereo not drawn)	≤ 20 µM	≤ 20 µM	+ (inhibited tubulin polymerisation by greater than 50% at 50 μM)	≤ 20 µM	≤ 20 µM	≤ 20 µM
CCCC(Nc1cncc(-c2ccc(O)c(OC)c2)n1)c1ccccc1 (stereo not drawn)	≤ 20 µM	≤ 20 µM	+ (inhibited tubulin polymerisation by greater than 50% at 50 μM)	≤ 20 µM	≤ 20 µM	≤ 20 µM
